In ChEMBL document CHEMBL3217639, “Property based optimisation of glucokinase activators discovery of the phase IIb clinical candidate AZD1656” (Medchemcomm, 2012):
Converted amounts (≈) assume the structure as drawn.

Tests used:
[1] = system: Salmonella typhimurium; assay: Genotoxicity in Salmonella typhimurium by Ames test; assay type: toxicity, organism-based; conditions: salmonella enterica subsp. enterica serovar typhimurium
[2] = Crystalline solubility of the compound; assay type: physicochemical
[3] = Apparent permeability from apical to basolateral side in MDCK cells expressing human MDR1; assay type: ADME, cell-based, Canis lupus familiaris; conditions: dog
[4] = organism: Rattus norvegicus; assay: Unbound clearance in rat; assay type: ADME, organism-based; conditions: in vivo
[5] = organism: Canis familiaris; assay: Unbound clearance in dog; assay type: ADME, organism-based, Canis lupus familiaris; conditions: in vivo
[6] = system: Rattus norvegicus; assay: Antidiabetic activity in high fat fed Zucker rat assessed as reduction of AUC of plasma glucose level at 3 mg/kg by oral glucose tolerance test; assay type: functional; parameters: scale not given: the % may be the effect or the level left
[7] = biological target: T1, Hexokinase-4 (Homo sapiens, UniProt P35557); assay: […] of recombinant human pancreatic glucokinase by G-6-P dehydrogenase assay
T1 sequence (P35557 whole entry): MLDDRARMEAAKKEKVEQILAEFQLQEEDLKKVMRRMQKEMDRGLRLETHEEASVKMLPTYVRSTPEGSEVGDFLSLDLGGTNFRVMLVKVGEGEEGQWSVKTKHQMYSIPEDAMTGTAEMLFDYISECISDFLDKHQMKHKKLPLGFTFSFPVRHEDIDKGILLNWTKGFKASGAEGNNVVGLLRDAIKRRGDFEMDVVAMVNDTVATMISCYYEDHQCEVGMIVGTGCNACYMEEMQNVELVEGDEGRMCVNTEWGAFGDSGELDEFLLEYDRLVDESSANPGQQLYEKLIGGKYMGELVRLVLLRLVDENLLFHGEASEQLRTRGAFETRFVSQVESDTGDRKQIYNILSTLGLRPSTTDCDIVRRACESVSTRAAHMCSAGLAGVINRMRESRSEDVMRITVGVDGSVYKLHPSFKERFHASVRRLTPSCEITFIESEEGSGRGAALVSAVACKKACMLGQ

[8] = Lipophilicity, log D of the compound; assay type: physicochemical; conditions: octanol/water
[9] = biological target: Voltage-gated inwardly rectifying potassium channel KCNH2 (Homo sapiens, UniProt Q12809)
Chain of Voltage-gated inwardly rectifying potassium channel KCNH2 (Q12809 whole entry): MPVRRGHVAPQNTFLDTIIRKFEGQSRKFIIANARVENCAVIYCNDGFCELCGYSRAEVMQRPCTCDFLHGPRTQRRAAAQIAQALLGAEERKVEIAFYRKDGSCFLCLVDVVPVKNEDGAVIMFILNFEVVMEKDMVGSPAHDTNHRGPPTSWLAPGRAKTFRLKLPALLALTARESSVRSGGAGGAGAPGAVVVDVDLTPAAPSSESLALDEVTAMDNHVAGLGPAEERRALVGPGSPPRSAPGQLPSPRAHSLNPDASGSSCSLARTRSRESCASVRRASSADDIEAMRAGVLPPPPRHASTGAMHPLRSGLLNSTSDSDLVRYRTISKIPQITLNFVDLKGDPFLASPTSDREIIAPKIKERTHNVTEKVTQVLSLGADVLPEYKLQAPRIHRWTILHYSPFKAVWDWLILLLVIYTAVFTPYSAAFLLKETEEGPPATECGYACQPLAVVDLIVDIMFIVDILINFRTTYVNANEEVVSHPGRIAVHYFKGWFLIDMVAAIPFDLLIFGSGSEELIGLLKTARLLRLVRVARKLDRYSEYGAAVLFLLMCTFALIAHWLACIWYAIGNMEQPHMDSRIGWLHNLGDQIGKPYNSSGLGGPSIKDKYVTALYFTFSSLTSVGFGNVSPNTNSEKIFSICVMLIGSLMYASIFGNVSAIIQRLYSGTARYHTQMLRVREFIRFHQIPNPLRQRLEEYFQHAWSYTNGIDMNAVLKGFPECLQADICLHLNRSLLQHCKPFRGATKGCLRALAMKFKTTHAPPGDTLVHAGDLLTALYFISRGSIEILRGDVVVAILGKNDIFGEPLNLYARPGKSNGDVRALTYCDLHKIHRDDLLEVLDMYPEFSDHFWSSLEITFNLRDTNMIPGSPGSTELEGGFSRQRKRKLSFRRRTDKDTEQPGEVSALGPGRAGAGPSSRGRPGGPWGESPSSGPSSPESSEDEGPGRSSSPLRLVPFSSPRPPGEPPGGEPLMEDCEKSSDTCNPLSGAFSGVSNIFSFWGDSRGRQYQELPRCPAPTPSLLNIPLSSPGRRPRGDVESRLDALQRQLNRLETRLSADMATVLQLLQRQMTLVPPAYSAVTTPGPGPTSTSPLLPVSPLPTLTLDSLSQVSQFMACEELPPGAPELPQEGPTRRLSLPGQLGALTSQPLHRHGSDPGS

[10] = Clearance in rat; assay type: ADME, organism-based; conditions: in vivo
[11] = Volume of distribution at steady state in rat; assay type: ADME, organism-based; conditions: in vivo, read-out: Vdss
[12] = Oral bioavailability in rat; assay type: ADME, organism-based; conditions: in vivo
[13] = Clearance in dog; assay type: ADME, organism-based, Canis lupus familiaris; conditions: in vivo
[14] = Volume of distribution at steady state in dog; assay type: ADME, organism-based, Canis lupus familiaris; conditions: in vivo, read-out: Vdss
[15] = Oral bioavailability in dog; assay type: ADME, organism-based, Canis lupus familiaris; conditions: in vivo
[16] = system: Rattus norvegicus; assay: Antidiabetic activity in high fat fed Zucker rat assessed as reduction of AUC of plasma glucose level at 1 mg/kg by oral glucose tolerance test; assay type: functional; parameters: scale not given: the % may be the effect or the level left

SMILES | solubility thermodynamic [2] [µM] | Papp A→B [3] [×10⁻⁶ cm/s] | EC50 [7] [nM] | logD [8] | IC50 [9] [nM] | also measured
Nc1cc[nH]n1 | – | – | – | – | – | Activity [1]: Non-toxic
C[C@@H](CO)Oc1cc(Oc2ccc(C(=O)N3CCC3)cc2)cc(C(=O)Nc2ccn(C)n2)c1 | 350 (≈ 158 µg/mL) | 1.2 | – | – | – | CL free [4]: 480 mL/min/kg; CL free [5]: 61 mL/min/kg; Activity [6]: 24%
CCn1ccc(NC(=O)c2cc(Oc3ccc(C(=O)N4CCC4)cc3)cc(O[C@@H](C)CO)c2)n1 | 280 (≈ 130 µg/mL) | 1.6 | 31 | 2.4 | – | –
CC(C)n1ccc(NC(=O)c2cc(Oc3ccc(C(=O)N4CCC4)cc3)cc(O[C@@H](C)CO)c2)n1 | 44 (≈ 21.1 µg/mL) | – | 73 | 2.8 | 31000 | –
C[C@@H](CO)Oc1cc(Oc2ccc(C(=O)N3CCC3)cc2)cc(C(=O)Nc2cc[nH]n2)c1 | 670 (≈ 292 µg/mL) | 0.8 | 53 | 2 | > 100000 | –
C[C@@H](CO)Oc1cc(Oc2ccc(C(=O)N3CCC3)cc2)cc(C(=O)Nc2nccs2)c1 | 9 (≈ 4.08 µg/mL) | – | 32 | 3.1 | 9000 | –
Cc1nsc(NC(=O)c2cc(Oc3ccc(C(=O)N4CCC4)cc3)cc(O[C@@H](C)CO)c2)n1 | 17 (≈ 7.97 µg/mL) | 5.2 | 35 | 2.7 | 11000 | –
Cc1cnc(NC(=O)c2cc(Oc3ccc(C(=O)N4CCC4)cc3)cc(O[C@@H](C)CO)c2)cn1 | 17 (≈ 7.86 µg/mL) | 4.1 | 61 | 2.4 | 38000 | –
Cn1ccc(N)n1 | – | – | – | – | – | Activity [1]: Toxic
CCn1ccc(N)n1 | – | – | – | – | – | Activity [1]: Toxic
CC(C)n1ccc(N)n1 | – | – | – | – | – | Activity [1]: Toxic
Cc1cnc(N)cn1 | – | – | – | – | – | Activity [1]: Non-toxic
COC[C@H](C)Oc1cc(Oc2ccc(C(=O)N3CCC3)cc2)cc(C(=O)Nc2ccn(C)n2)c1 | 490 (≈ 228 µg/mL) | 12 | 37 | 2.5 | – | –
CC(C)Oc1cc(Oc2ccc(C(=O)N3CCC3)cc2)cc(C(=O)Nc2ccn(C)n2)c1 | 125 (≈ 54.3 µg/mL) | – | 110 | 3.3 | 27000 | –
Cn1ccc(NC(=O)c2cc(Oc3ccc(C(=O)N4CCC4)cc3)cc(O[C@H]3CCOC3)c2)n1 | 180 (≈ 83.3 µg/mL) | 6.4 | 70 | 2.2 | – | –
Cn1ccc(NC(=O)c2cc(Oc3ccc(C(=O)N4CCC4)cc3)cc(OC3CCOCC3)c2)n1 | 170 (≈ 81 µg/mL) | – | 170 | – | – | –
Cn1ccc(NC(=O)c2cc(Oc3ccc(C(=O)N4CCC4)cc3)cc(OC(CF)CF)c2)n1 | 11 (≈ 5.18 µg/mL) | 7 | 47 | 2.6 | – | –
COC[C@H](C)Oc1cc(Oc2ccc(C(=O)N3CCC3)cc2)cc(C(=O)Nc2cnc(C)cn2)c1 | 30 (≈ 14.3 µg/mL) | 29 | 73 | 2.9 | – | –
COC[C@H](C)Oc1cc(Oc2ccc(C(=O)N3CCC3)nc2)cc(C(=O)Nc2cnc(C)cn2)c1 | 21 (≈ 10 µg/mL) | 18 | 36 | 2.9 | 40000 | –
COC[C@H](C)Oc1cc(Oc2ccc(C(=O)N3CCC3)cn2)cc(C(=O)Nc2cnc(C)cn2)c1 | – | – | 370 | – | – | –
COC[C@H](C)Oc1cc(Oc2ncc(C(=O)N3CCC3)cc2Cl)cc(C(=O)Nc2cnc(C)cn2)c1 | 8 (≈ 4.1 µg/mL) | – | 60 | 2.8 | – | –
Cc1nsc(N)n1 | – | – | – | – | – | Activity [1]: Non-toxic
Nc1nccs1 [AMINOTHIAZOLE] | – | – | – | – | – | Activity [1]: Non-toxic
COC[C@H](C)Oc1cc(Oc2cnc(C(=O)N3CCC3)cn2)cc(C(=O)Nc2cnc(C)cn2)c1 [AZD-1656] | 280 (≈ 134 µg/mL) | 35 | 61 | 2.4 | > 100000 | clearance [10]: 16 mL/min/kg; CL free [4]: 310 mL/min/kg; Vd [11]: 0.5 L/kg; bioavailability [12]: 100%; clearance [13]: 8.1 mL/min/kg; CL free [5]: 50 mL/min/kg; Vd [14]: 1.5 L/kg; bioavailability [15]: 100%; Activity [16]: 43%
